Assay results published in patent US7026289B2, “Method and compositions for treating hyperlipidemia and other conditions” (Societe de Conseils de Recherches et d'Applications …, priority 1997, dated 2006).
Positions of bridges follow the written chain, without caps; N, C: chain ends. Non-standard residues stand in square brackets, D forms with d. Residues, ends and D or L forms follow the SMILES beside them.

Columns and labels:
[1] = test system: fatty (fa/fa) Zucker rats; test: Reduction of glycerol and triglycerides, chronic treatment in obese rats; assay type: in vivo, rat; settings: for plasma glycerol / plasma triglycerides: 3 mg/kg s.c. twice a day, 6 days, vs saline
Text: The obese (fa/fa) Zucker and its derivative in the Zucker diabetic fatty (ZDF/Drt-fa) are excellent models of diabetes-induced dyspilidemia (Shafrir, E., Diabetes/Metabolism Rev. 8:179–208 (1992); Peterson, R. G., et al., ILAR News 32:16–19 (1990)). The animals develop progressive hypertriglyceridemia and hypercholesterolemia.
Eleven male fatty Zucker rats weighing about 450 grams were randomly divided into 2 groups and their initial body wights recorded. The animals were housed in pairs in a normal 12 hour light/dark cycle at 20–21 C and fed a standard laboratory rat diet (Beekay rat and mouse diet, Bantin & Kingman, Hull, Humberside, U.K.) overnight ad libitum.
For the group assigned to receive drug treatment, the rats received BIM-23268C at 3 mg/kg, by subcutaneous injection twice a day at 10:00 a.m. and 5:00 p.m. The other group was treated with a subcutaneous injection of 0.1 ml/100 g of saline twice a day at 10:00 a.m. and 5:00 p.m. The animals were subjected to the BIM-23268 or saline treatment for a total of six days.
On the last day of treatment (day 6), food was removed at 5:00 p.m. and the rats fasted overnight. At 9:00 a.m. the next day, the animals were subjected to a glucose challenge, given as a 0.8 gram/kg of glucose orally. Periodic 400 ul of blood samples were taken from the tail vein (Peterson, R. G., ILAR News 32:16–19 (1990)) at 60 min. and 30 min. before, and at 30, 60, 90, and 120 min. after the administration of the glucose challenge (08. gram/kg orally). Aprotinin (Traysylol, Bayer UK, Hayward's Heath, W. Sussex, U.K.) and heparin (Sigma Chemical Co., Poole, Dorset, U.K.) were added to the blood samples to a final concentration of 400 KIU/ml and 100 units/ml, respectively. Plasma fractions were prepared from these samples by centrifugation at 400×G in a microfuge, for the estimation of triglycerides and glycerol. Samples were then stored at −80° C. until assayed.
Plasma glycerol and triglycerides were determined using the Sigma Enzymatic (Tinder) calorimetric assay kit (Cat #337-B, Sigma Chemical Co., Poole, Dorset, U.K.) and measuring absorbance at 540 nm in a spectrophotometer.

[2] = molecular target: T1, hSSTR-1 (Homo sapiens, UniProt P30872); test: Somatostatin receptor binding assay, [125I-Tyr11] somatostatin-14, CHO-K1 membranes; settings: displacement of 0.05 nM [125I-Tyr11] somatostatin-14, transfected CHO-K1 membranes
T1 construct: expressed in transfected cells
T1 sequence (P30872 whole entry): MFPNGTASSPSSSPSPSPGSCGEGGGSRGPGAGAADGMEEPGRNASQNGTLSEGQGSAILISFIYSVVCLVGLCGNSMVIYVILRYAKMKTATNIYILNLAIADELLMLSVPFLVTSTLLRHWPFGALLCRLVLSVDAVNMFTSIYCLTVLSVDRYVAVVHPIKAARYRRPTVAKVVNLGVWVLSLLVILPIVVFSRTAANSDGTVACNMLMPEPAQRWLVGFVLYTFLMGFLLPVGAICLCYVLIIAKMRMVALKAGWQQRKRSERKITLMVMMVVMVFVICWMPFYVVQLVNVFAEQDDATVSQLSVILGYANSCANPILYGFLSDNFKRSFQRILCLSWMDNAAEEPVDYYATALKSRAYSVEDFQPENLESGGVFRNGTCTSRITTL
Protocol: Restriction endonucleases are available from New England Biolabs (Beverly, Mass.). […] Other mammalian expression vectors include pcDNA1/Amp (Invitrogen, Sandlesy, Calif.). The expression plasmids were introduced into the suitable bacterial host, E. Coli HB101 (Stratagene, La Jolla, Calif.) and plasmid DNAs, for transfection, were prepared on Cesium Chloride gradients.
CHO-K1 (ovary, Chinese hamster) cells were obtained from ATCC (ATCC No. CCL 61). The cells were grown and maintained in Ham's F12 media (Gibco BRL, Grand Island, N.Y.) supplemented with 10% fetal bovine serum under standard tissue culture conditions. […] DNA mediated transfection was carried out using the calcium phosphate co-precipitation method (Ausubel, F. M., et al., Current Protocols in Molecular Biology, John Wiley & Sons, 1987). The plasmid pRSV-neo (ATCC; ATCC No. 37198) was included as a selectable marker at 1/10 the concentration of the expression plasmid. CHO-K1 clonal cell lines that have stably inherited the transfected DNA were selected for growth in Ham's F12 media containing 10% fetal bovine serum and 0.5 mg/ml of G418 (Sigma). The cells were ring-cloned and expanded in the same media for analysis.
Transfected cell lines expressing the human SSTR receptors were clonally expanded in culture and used in the following SSTR binding protocol.
The resulting supernatant was decanted and discarded. […]

[3] = samples 30 and 60 min before oral glucose challenge
[4] = through the 2-hour test period after oral glucose challenge

SMILES | plasma glycerol [1, 3] | plasma triglycerides [1, 3] | plasma glycerol [1, 4] | plasma triglycerides [1, 4] | hypertriglyceridemia ([1]; 6-day treatment period at the prescribed dose (3 mg/kg s.c. twice a day)) | Ki [2] [nM]
C[C@@H](O)[C@@H]1NC(=O)[C@H](CCCCN)NC(=O)[C@@H](Cc2c[nH]c3ccccc23)NC(=O)[C@H](Cc2ccccc2)NC(=O)[C@H](Cc2ccccc2)NC(=O)[C@@H](N)CSSC[C@@H](C(N)=O)NC(=O)[C@H](Cc2ccccc2)NC1=O [BIM-23268, H-Cys-Phe-Phe-D-Trp-Lys-Thr-Phe-Cys-NH2] (H-CFF[dW]KTFC-NH2; disulfide 1-8) | significantly lowered | significantly lowered | significantly lower | significantly lower | effective in reducing hypertriglyceridemia | –
C[C@@H](O)[C@@H]1NC(=O)[C@H](CCCCN)NC(=O)[C@@H](Cc2c[nH]c3ccccc23)NC(=O)[C@H](Cc2ccc(O)c(I)c2)NC(=O)[C@H](Cc2ccccc2)NC(=O)[C@@H](N)CSSC[C@@H](C(N)=O)NC(=O)[C@H](Cc2ccccc2)NC1=O [BIM-23313, H-Cys-Phe-Tyr(I)-D-Trp-Lys-Thr-Phe-Cys-NH2] | – | – | – | – | – | 151
